How the values were obtained:
[1] = test system: Normal human lung fibroblast (NHLF); experiment: BrdU proliferation assay in normal human lung fibroblasts; assay type: cell-based; conditions: TGFβ treatment and serum stimulation (0.1% or 5% FBS), 48 hours, inhibitor 20 μM
Protocol: (§1) Cell Culture. Normal human lung fibroblast (NHLF) and lung fibroblast from IPF patients were purchased from Lonza, Inc. (Allendale, NJ) and cultured as recommended in FGM-2 medium supplemented with 5% fetal bovine serum (FBS) in 5% CO2 at 37° C. and passaged at the confluence. All the cell lines were tested by the manufacturers and negative for HIV-1, HBV, HCV, mycoplasma, bacteria, yeast, and fungi.
(§2) Pharmacological treatment. Cells were seeded at 250,000 cells/well in 6-well plates and maintained in a 37° C. incubator with 5% CO2 for 24 hrs prior to use. Cells were treated with TGF-β1 (2 ng/mL; 48 hrs) alone or in combination with either Epac1 inhibitor CE3F4 (20 μM; 48 hrs) or AM-001 (20 μM; 48 hrs).
(§3) The proliferation of NHLFs was measured by 5-bromo-2′-deoxyuridine (BrdU) incorporation using the Cell Proliferation ELISA, BrdU (colorimetric) assay (Roche, Indianapolis, IN), according to the manufacturer's instructions.

[2] = prevents its use for in vivo applications; cited from earlier work
[3] = test system: fibrosis markers (COL1, COL3, CTGF, TGFβ) in NHLF cells; experiment: qPCR of TGF-β1-induced fibrosis marker mRNA in NHLF; assay type: cell-based, human; conditions: TGF-β1 2 ng/mL 48 hrs, inhibitor 20 μM 48 hrs
Protocol: as §1, §2
(§4) Total RNA was isolated using TRIzol™ (Invitrogen) and purified using RNeasy mini columns (Qiagen), according to the manufacturer's instructions. The cDNA synthesis kit (Applied Biosystems, Foster City, CA) was used to synthesized cDNA, as described by the manufacturer. Quantitative RT-PCR was performed using the PerfeCTa SYBR™ Green FastMix kit (Quantabio, Beverly, MA) and specific primers against the indicated genes, according to the manufacturer's instructions. Fold changes in gene expression were determined using the relative comparison method with normalization to GAPDH as an internal loading control.

[4] = target: Epac2 (Homo sapiens, UniProt Q8WZA2); conditions: Laudette et al. 2019; cited from earlier work
Sequence of Epac2 (Q8WZA2 whole entry, species assumed): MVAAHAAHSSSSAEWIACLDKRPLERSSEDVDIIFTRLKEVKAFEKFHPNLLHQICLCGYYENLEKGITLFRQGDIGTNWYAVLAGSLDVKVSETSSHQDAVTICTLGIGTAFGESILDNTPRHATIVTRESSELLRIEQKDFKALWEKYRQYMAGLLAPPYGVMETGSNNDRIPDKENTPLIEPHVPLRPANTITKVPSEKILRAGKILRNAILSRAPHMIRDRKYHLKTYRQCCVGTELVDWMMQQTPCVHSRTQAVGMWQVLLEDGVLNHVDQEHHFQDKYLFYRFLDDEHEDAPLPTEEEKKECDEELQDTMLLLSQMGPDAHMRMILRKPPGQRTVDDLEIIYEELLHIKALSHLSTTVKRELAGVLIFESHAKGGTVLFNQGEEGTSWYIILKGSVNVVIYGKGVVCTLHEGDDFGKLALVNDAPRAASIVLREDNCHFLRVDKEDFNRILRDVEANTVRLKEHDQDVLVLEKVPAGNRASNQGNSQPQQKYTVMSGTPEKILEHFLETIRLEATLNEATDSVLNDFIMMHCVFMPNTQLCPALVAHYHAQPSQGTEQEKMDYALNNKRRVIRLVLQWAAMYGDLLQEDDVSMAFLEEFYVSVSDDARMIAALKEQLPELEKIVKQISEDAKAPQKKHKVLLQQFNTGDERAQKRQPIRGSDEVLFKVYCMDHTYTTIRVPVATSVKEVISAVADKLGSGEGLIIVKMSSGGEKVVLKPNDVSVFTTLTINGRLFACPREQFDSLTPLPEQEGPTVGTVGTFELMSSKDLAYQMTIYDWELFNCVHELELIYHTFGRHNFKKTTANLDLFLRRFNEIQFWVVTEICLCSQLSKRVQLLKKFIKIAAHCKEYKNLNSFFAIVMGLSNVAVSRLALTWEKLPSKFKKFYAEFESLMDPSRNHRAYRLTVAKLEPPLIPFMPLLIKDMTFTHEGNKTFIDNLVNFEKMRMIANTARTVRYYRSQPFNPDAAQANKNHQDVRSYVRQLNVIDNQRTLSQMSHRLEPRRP

[5] = test system: IPF fibroblasts; experiment: qPCR of IL-6, α-SMA and FOXO3 mRNA in IPF fibroblasts; assay type: cell-based, human; conditions: 20 μM for 48 h
Protocol: as §1, §4

[6] = target: T1, Epac1 (Homo sapiens, UniProt O95398); conditions: Laudette et al. 2019; cited from earlier work
T1 sequence (O95398 1-923): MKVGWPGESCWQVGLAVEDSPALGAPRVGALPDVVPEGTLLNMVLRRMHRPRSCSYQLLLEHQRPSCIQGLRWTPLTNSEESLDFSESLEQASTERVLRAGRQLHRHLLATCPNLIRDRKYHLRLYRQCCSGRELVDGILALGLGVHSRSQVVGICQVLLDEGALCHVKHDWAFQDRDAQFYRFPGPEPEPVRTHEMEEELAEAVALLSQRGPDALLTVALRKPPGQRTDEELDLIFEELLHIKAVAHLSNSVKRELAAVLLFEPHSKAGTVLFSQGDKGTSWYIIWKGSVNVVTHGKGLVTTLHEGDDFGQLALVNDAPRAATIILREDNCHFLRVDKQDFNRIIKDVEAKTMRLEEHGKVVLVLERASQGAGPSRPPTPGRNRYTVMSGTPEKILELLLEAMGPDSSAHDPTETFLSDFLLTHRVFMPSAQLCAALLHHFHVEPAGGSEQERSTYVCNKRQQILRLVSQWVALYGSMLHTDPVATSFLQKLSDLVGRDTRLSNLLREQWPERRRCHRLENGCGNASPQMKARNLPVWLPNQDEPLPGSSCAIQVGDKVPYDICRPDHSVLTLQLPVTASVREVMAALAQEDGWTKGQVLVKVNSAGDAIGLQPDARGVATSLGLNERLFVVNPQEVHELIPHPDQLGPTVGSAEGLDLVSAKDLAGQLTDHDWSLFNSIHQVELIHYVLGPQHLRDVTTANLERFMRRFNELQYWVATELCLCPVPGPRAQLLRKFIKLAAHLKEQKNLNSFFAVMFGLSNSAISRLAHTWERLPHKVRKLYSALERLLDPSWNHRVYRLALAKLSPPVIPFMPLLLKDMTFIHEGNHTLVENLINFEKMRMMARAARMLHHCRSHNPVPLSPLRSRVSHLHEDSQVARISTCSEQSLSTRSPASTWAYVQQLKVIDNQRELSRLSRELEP

[7] = test system: mouse model of bleomycin-induced pulmonary fibrosis; experiment: qPCR of marker mRNA in lung and RV tissues of bleomycin-challenged mice; assay type: in vivo
Protocol: Intratracheal bleomycin animal model. All of the animal experiments and handling were performed in accordance with NIH Guide for the Care and Use of Laboratory Animals. Animals were anesthetized by IP injection of xylazine/ketamine and were secured to a tray in the supine position. After intubation, the board was tilted at 45 degrees, and the IA-1C Microsprayer tip (PennCentury, Wyndmoor, PA) was inserted through the lumen of the angiocath. Animals were subjected to a single intratracheal injection of BLM (50 μL; 4 U/Kg) for 28 days. The pharmacological inhibitor of Epac1, AM-001, was injected intraperitoneally every alternate day (10 mg/kg) for 2 weeks.
as §4
Using a therapeutic strategy, mice were randomly allocated to a sham control-treated group that received intratracheal saline and PF group that received a single intratracheal aerosolization of BLM (4 U/kg). After 2 weeks, the BLM-challenged group was randomly assigned to receive either a vehicle or the Epac1 inhibitor AM-001 for two weeks (FIG. 4A). Vehicle or AM-001 was injected intraperitoneally every alternate day (10 mg/kg) for 2 weeks. […] To further investigate the potential therapeutic effect of Epac1 inhibition in PF, the interstitial fibrosis level and the vascular remodeling were next evaluated by histological analysis after 2 weeks of treatment. […] The inventors also measured by RT-qPCR the expression of several markers of fibrosis in the lung samples.

[8] = test system: IPF fibroblasts; experiment: BrdU proliferation assay in IPF fibroblasts; assay type: cell-based, human; conditions: basal condition, preliminary data
Protocol: as §1, §3

[9] = test system: myocardial I/R injury and chronic β-AR activation; conditions: Laudette et al. 2019; cited from earlier work
[10] = test system: IPF fibroblasts; experiment: Immunoblot of phospho-SMAD2/3, phospho-STAT3, phospho-AKT in IPF fibroblasts; assay type: cell-based, human; conditions: IPF fibroblast
Protocol: as §1
SDS-PAGE and Immunoblot Analysis. Protein lysates were prepared using RIPA lysis buffer (Boston BioProducts) containing a Protease/Phosphatase Inhibitor Cocktail (Pierce). After centrifugation for 20 min at 15000×g, the protein concentrations were determined using a bicinchoninic acid (BCA) assay (Sigma-Aldrich). The proteins were then separated by SDS-polyacrylamide gel electrophoresis and transferred to polyvinylidene difluoride membranes. The membranes were blocked with 5% Skim milk and hybridized overnight at 4° C. with the following primary antibodies: Epac1 (Cell signaling), phospho-SMAD2/3 (Cell signaling), phospho-STAT3 (Cell signaling), phospho-AKT (Cell signaling), Total AKT (Cell signaling), and GAPDH (Thermofisher). The membranes were then incubated with the appropriate secondary HRP-conjugated antibody (Cell signaling) for 1 hour, and the blots were developed using the ECL System (Thermofisher).

[11] = test system: mouse model of bleomycin-induced pulmonary fibrosis; experiment: Hemodynamics and RV hypertrophy in bleomycin-induced pulmonary fibrosis mouse model; assay type: in vivo; conditions: 10 mg/kg i.p. every alternate day for 2 weeks
Protocol: Intratracheal bleomycin animal model. […] Animals were anesthetized by IP injection of xylazine/ketamine and were secured to a tray in the supine position. After intubation, the board was tilted at 45 degrees, and the IA-1C Microsprayer tip (PennCentury, Wyndmoor, PA) was inserted through the lumen of the angiocath. Animals were subjected to a single intratracheal injection of BLM (50 μL; 4 U/Kg) for 28 days.
Heart hemodynamic studies. The mice were anesthetized with (2-4%) isoflurane, intubated via tracheotomy, and mechanically ventilated with 1-2% isoflurane and oxygen (tidal volume, 6 mL/kg; respiratory rate, 100 breaths per minute). The thoracic cavity was opened, and the organs were accessed through a sternotomy. Once the pericardium was opened, and the heart was fully accessible, an ultrasonic flow probe (flow probe 2.5S176; Transonic Systems Inc., Ithaca, NY) was inserted into the RV to collect the right ventricular systolic pressure (RVSP). Hemodynamic data were recorded using a Scisense PV Control Unit (Scisense, Ontario, Canada).
Right Ventricular Weight Measurement. After the hemodynamic data were collected, the mice were harvested to collect the heart and lungs. […] The Fulton Index was calculated by the weight ratio of the RV weight to the LV plus septum weight (RV weight/LV+Septum weight) to specifically illustrate the RV hypertrophy. […]

[12] = test system: protein kinase A (PKA); conditions: Laudette et al. 2019; cited from earlier work
[13] = test system: mouse model of bleomycin-induced pulmonary fibrosis; experiment: Histology (Masson's trichrome, H&E, WGA) in bleomycin-induced pulmonary fibrosis mouse model; assay type: in vivo
Protocol: Intratracheal bleomycin animal model. […] Animals were anesthetized by IP injection of xylazine/ketamine and were secured to a tray in the supine position. After intubation, the board was tilted at 45 degrees, and the IA-1C Microsprayer tip (PennCentury, Wyndmoor, PA) was inserted through the lumen of the angiocath. Animals were subjected to a single intratracheal injection of BLM (50 μL; 4 U/Kg) for 28 days. The pharmacological inhibitor of Epac1, AM-001, was injected intraperitoneally every alternate day (10 mg/kg) for 2 weeks.
Hematoxylin & Eosin and Masson's trichrome staining. Lung tissue was harvested, inflated with PBS/OCT (50:50), and fixed (frozen in −80° C.) in OCT. Sections were cut to 8 μm and adhered to colorfrost glass slides (ThermoFisher). Lung tissue sections were stained with hematoxylin and eosin (H&E) and Masson's trichrome (Sigma-Aldrich) and visualized using light microscopy. The medial thickness and collagen deposition were then quantified using ImageJ software.
RV sections were fixed in 1% paraformaldehyde (PFA) and stained using fluorescence-tagged wheat germ agglutinin (WGA) (Invitrogen) overnight at 4° C. and imaged with on Zeiss Observer Z.1 microscope (Carl Zeiss) at ×160 magnification. The outlines of cardiac myocytes were traced, and the cardiomyocyte area was calculated using ImageJ software.

[14] = BLM+AM-001 vs BLM+vehicle, WT mice
[15] = BLM-challenged mice, 10 mg/kg i.p. every alternate day for 2 weeks

CC1CCc2c(cc(Br)c(F)c2Br)N1C=O (stereo not shown) [CE3F4]
proliferation of NHLFs (BrdU) [1]: significantly decreased
biodisponibility [2]: low
mRNA expression of fibrosis markers (COL1, COL3, CTGF, TGFβ) induced by TGFβ [3]: impaired the induction

Nc1c(C(=O)Nc2ccc(F)cc2)sc2nc(-c3cccs3)cc(-c3ccccc3)c12 [AM-001, 3-amino-N-(4-fluorophenyl)-4-phenyl-6-(thiophen-2-yl)thieno[2,3-b]pyridine-2-carboxamide]
antagonist effect on Epac2 [4]: no antagonist effect
proliferation of NHLFs (BrdU) [1]: inhibited
FOXO3 mRNA expression [5]: restored
IL-6 mRNA expression [5]: attenuates
α-SMA mRNA expression [5]: attenuates
inhibitory activity toward Epac1 [6]: selective inhibitory activity
FGFR1 mRNA level [7, 14]: significantly decreasing
TNC mRNA level [7, 14]: trend decrease
upregulation of fibrosis and hypertrophic gene markers (ANP, BNP, β-MHC) in RV ([7]; BLM-challenged mice, RV tissues): compromised
COLI mRNA level in lung samples [7, 15]: markedly reduced
COLIII mRNA level in lung samples [7, 15]: markedly reduced
CTGF mRNA level in lung samples [7, 15]: markedly reduced
TGFβ mRNA level in lung samples [7, 15]: markedly reduced
IPF fibroblasts proliferation (BrdU) [8]: decrease
mRNA expression of fibrosis markers (COL1, COL3, CTGF, TGFβ) induced by TGFβ [3]: impaired the upregulation
cardioprotection against myocardial I/R injury and detrimental effects of chronic β-AR activation [9]: cardioprotective properties
phosphorylation of AKT [10]: decreased
phosphorylation of SMAD2/3 [10]: decreased
phosphorylation of STAT3 [10]: decreased
right ventricular systolic pressure (RVSP) ([11]; BLM 4 U/kg intratracheal, vs control group): reduction
RV hypertrophy (Fulton Index) ([11]; BLM-challenged mice): significantly decreased
antagonist effect on protein kinase A (PKA) activity [12]: no antagonist effect
pulmonary vascular remodeling (medial thickness of distal pulmonary arteries) ([13]; BLM mice, vs vehicle-treated BLM mice): markedly diminished
cardiomyocyte size in RV (WGA staining) [13, 15]: reduction
interstitial and perivascular fibrosis (Masson's trichrome) ([13]; BLM-challenged mice, 10 mg/kg i.p. every alternate day for 2 weeks, vs vehicle): significantly decreased
